According to the CheMixHub viscosity set:
“And” between values parts separate entries of the source, which are not always exact repeats. Equal entries are not always repeated.

Assay: xn = mol fraction of the nth substance listed

C[N+](=O)[O-] + CS(C)=O
viscosity [mPa·s], 101.3 kPa
Conditions	x2 = 0.1135	x2 = 0.117	x2 = 0.2337	x2 = 0.2468	x2 = 0.432	x2 = 0.4324	x2 = 0.5837	x2 = 0.5943	x2 = 0.812	x2 = 0.8156
298 K	0.726	–	0.823	–	1.014	–	–	1.229	1.613	–
318 K	–	0.5753	–	0.6471	–	0.7717	0.8878	–	–	1.12

Cc1cccc(O)c1 + C[N+](C)(C)CCO.[Cl-]
298.15 K, 101.33 kPa
Conditions	viscosity
x1 = 0.7	138.1 mPa·s
x1 = 0.8	74.18 mPa·s and 56.16 mPa·s and 49.24 mPa·s
x1 = 0.9	39.12 mPa·s

C[Si]1(C)O[Si](C)(C)O[Si](C)(C)O[Si](C)(C)O[Si](C)(C)O[Si](C)(C)O1 + C[Si](C)(C)O[Si](C)(C)O[Si](C)(C)O[Si](C)(C)C
Conditions	viscosity [mPa·s]
298.15 K, 101 kPa, x2 = 0.457	3.47

C[N+](=O)[O-] + Cc1ccc(C)cc1
293.15 K, 101.33 kPa
Conditions	viscosity [mPa·s]
x1 = 0.1151	0.632
x1 = 0.2724	0.628
x1 = 0.4256	0.626
x1 = 0.481	0.625
x1 = 0.6051	0.625
x1 = 0.6915	0.626
x1 = 0.794	0.627
x1 = 0.8837	0.632

C[N+](=O)[O-] + Cc1ccccc1
298.15 K, 101 kPa
Conditions	viscosity [mPa·s]
x1 = 0.1803	0.5448
x1 = 0.3318	0.5368
x1 = 0.4595	0.5331
x1 = 0.5699	0.534
x1 = 0.665	0.542
x1 = 0.7483	0.5534
x1 = 0.8226	0.5683
x1 = 0.888	0.5861
x1 = 0.9472	0.6066

Cc1cccc(O)c1 + Cc1ccccc1
308.15 K, 101 kPa
Conditions	viscosity [mPa·s]
x1 = 0.0892	0.5693
x1 = 0.198	0.7009
x1 = 0.3227	0.9138
x1 = 0.4371	1.215
x1 = 0.5644	1.71
x1 = 0.6801	2.44
x1 = 0.7905	3.416
x1 = 0.8866	4.871
x1 = 0.9596	6.414

CCCCC(CC)COP(=O)(O)OCC(CC)CCCC (centres undefined) + Cc1ccccc1C
viscosity [mPa·s], 101 kPa
Conditions	x1 = 0.1	x1 = 0.2	x1 = 0.398	x1 = 0.606	x1 = 0.796	x1 = 0.9
303.15 K	1.039	2.217	8.93	29.43	77.84	124.5
308.15 K	0.981	2.056	7.798	24.38	61.89	96.93
313.15 K	0.915	1.88	6.923	20.18	48.95	76.04
318.15 K	0.867	1.743	5.965	18.03	41.55	63.57

Cc1cccc(O)c1 + Cc1ccccc1N
298.15 K, 101 kPa
Conditions	viscosity [mPa·s]
x1 = 0.33	8.06
x1 = 0.496	11.21
x1 = 0.662	13.84
x1 = 0.751	13.76

CCC1(C)OC1C#N (centres undefined) + ClC(Cl)(Cl)Cl
viscosity [mPa·s], 101 kPa
Conditions	293.15 K	298.15 K	303.15 K	313.15 K	323.15 K
x1 = 0.0076	0.977	0.906	0.875	0.75	0.646
x1 = 0.008	0.983	0.938	0.873	0.776	0.698

CCCCOCCOCCOCCO + ClC(Cl)=C(Cl)Cl
298.15 K, 101.33 kPa
Conditions	viscosity [mPa·s]
x2 = 0.0067	0.864
x2 = 0.0173	0.895
x2 = 0.0345	0.95
x2 = 0.0476	0.995
x2 = 0.06	1.04
x2 = 0.0815	1.124
x2 = 0.1063	1.227
x2 = 0.1471	1.408
x2 = 0.184	1.601
x2 = 0.2264	1.828
x2 = 0.2617	2.046
x2 = 0.3067	2.351
x2 = 0.348	2.66
x2 = 0.377	2.889
x2 = 0.415	3.192
x2 = 0.4588	3.55
x2 = 0.491	3.816
x2 = 0.5348	4.198
x2 = 0.576	4.576
x2 = 0.6201	4.978
x2 = 0.6577	5.357
x2 = 0.7089	5.881
x2 = 0.7558	6.354
x2 = 0.8037	6.872
x2 = 0.8566	7.45
x2 = 0.9013	7.964
x2 = 0.9283	8.26
x2 = 0.9521	8.528
x2 = 0.9738	8.793

CCCCOCCOCCOCCO + ClC=C(Cl)Cl
298.15 K, 101.33 kPa
Conditions	viscosity [mPa·s]
x1 = 0.008	0.55
x1 = 0.0207	0.583
x1 = 0.0326	0.62
x1 = 0.0484	0.671
x1 = 0.0692	0.742
x1 = 0.0868	0.809
x1 = 0.1122	0.913
x1 = 0.1472	1.064
x1 = 0.1817	1.242
x1 = 0.2132	1.421
x1 = 0.2487	1.641
x1 = 0.2772	1.839
x1 = 0.3104	2.088
x1 = 0.3418	2.329
x1 = 0.3841	2.663
x1 = 0.4202	2.968
x1 = 0.4555	3.288
x1 = 0.4882	3.585
x1 = 0.5244	3.929
x1 = 0.5826	4.489
x1 = 0.6409	5.1
x1 = 0.6866	5.591
x1 = 0.7428	6.2
x1 = 0.8128	6.968
x1 = 0.8883	7.84
x1 = 0.9261	8.238
x1 = 0.967	8.732
x2 = 0.0136	8.939

CCCCC(CC)COP(=O)(O)OCC(CC)CCCC (centres undefined) + Clc1ccccc1
viscosity [mPa·s], 101 kPa
Conditions	x1 = 0.0374	x1 = 0.0804	x1 = 0.1303	x1 = 0.1888	x1 = 0.2587	x1 = 0.3436	x1 = 0.4481	x1 = 0.5826	x1 = 0.7584
303.15 K	0.8898	1.127	1.45	1.903	2.556	3.531	5.039	7.539	11.9
313.15 K	0.766	0.9413	1.176	1.498	1.953	2.619	3.629	5.271	8.078
323.15 K	0.6693	0.7965	0.9633	1.187	1.497	1.939	2.595	3.637	5.374

CCCC[n+]1cc[nH]c1.O=S(=O)([N-]S(=O)(=O)C(F)(F)F)C(F)(F)F + N
Conditions	viscosity [mPa·s]
313.2 K, 101.33 kPa, x2 = 0.7076	9.866

Cc1cccc(O)c1 + Nc1ccccc1
298.15 K, 101 kPa
Conditions	viscosity [mPa·s]
x1 = 0.3	6.799
x1 = 0.374	8.194
x1 = 0.461	9.622
x1 = 0.549	11.12
x1 = 0.631	12.2
x1 = 0.778	12.31

[Br-].[Br-].[Br-].[Sb+3] + Nc1ccccc1
323.15 K, 101 kPa
Conditions	viscosity [mPa·s]
x1 = 0.1	6.997
x1 = 0.25	182.4
x1 = 0.333	2175
x1 = 0.4	7012
x1 = 0.45	20680
x1 = 0.47	23030
x1 = 0.49	24420
x1 = 0.5	24690
x1 = 0.51	20780
x1 = 0.53	16040
x1 = 0.55	7888
x1 = 0.6	3022
x1 = 0.75	272.9

CCCCOCCOCCOCCO + O
viscosity [mPa·s], 101 kPa
Conditions	293.15 K	303.15 K	313.15 K	323.15 K
x1 = 0.009612	1.536	1.175	0.9391	0.7657
x1 = 0.02136	2.342	1.741	1.356	1.094
x1 = 0.03602	3.496	2.526	1.935	1.519
x1 = 0.05509	5.103	3.614	2.685	2.137
x1 = 0.08023	7.018	4.832	3.562	2.692
x1 = 0.1156	9.156	6.189	4.476	3.293
x1 = 0.1685	11.21	7.424	5.289	3.913
x1 = 0.2571	12.63	8.311	5.912	4.406
x1 = 0.3308	12.68	8.439	6.038	4.477
x1 = 0.4398	12.35	8.238	5.926	4.406
x1 = 0.5322	11.78	7.929	5.747	4.329
x1 = 0.5991	11.36	7.685	5.612	4.257
x1 = 0.7291	10.51	7.271	5.407	4.147
x1 = 0.8068	10.13	7.083	5.264	4.088
x1 = 0.8905	9.778	6.856	5.143	3.936

N + O
Conditions	viscosity [mPa·s]
293.15 K, 100 kPa, x1 = 0.1035	1.166
293.15 K, 101 kPa, x1 = 0.0111	1.025
303 K, 100 kPa, x1 = 0.053	0.86
303 K, 100 kPa, x1 = 0.105	0.92
303 K, 100 kPa, x1 = 0.157	0.97
303 K, 100 kPa, x1 = 0.209	1
303.15 K, 100 kPa, x1 = 0.05336	0.838
303.15 K, 100 kPa, x1 = 0.1035	0.994
313 K, 100 kPa, x1 = 0.053	0.69
313 K, 100 kPa, x1 = 0.105	0.72
313 K, 100 kPa, x1 = 0.157	0.75
313 K, 100 kPa, x1 = 0.209	0.79
313.15 K, 100 kPa, x1 = 0.05336	0.666
313.15 K, 100 kPa, x1 = 0.1035	0.833

O=c1ccn([C@@H]2O[C@H](CO)C(O)C2O)c(=O)[nH]1 (some centres undefined) + O
viscosity [mPa·s], 101.3 kPa
Conditions	293.15 K	298.15 K	303.15 K	308.15 K	313.15 K	318.15 K
x1 = 0.0001846	–	0.895	–	0.723	–	0.599
x1 = 0.0002557	–	0.897	–	0.724	–	0.601
x1 = 0.00027	1.006	0.895	0.807	0.738	0.623	–
x1 = 0.000318	–	0.898	–	0.726	–	0.602
x1 = 0.000355	1.008	0.897	0.809	0.74	0.625	–
x1 = 0.0003955	–	0.9	–	0.727	–	0.603
x1 = 0.000448	1.01	0.899	0.811	0.742	0.627	–
x1 = 0.0005076	–	0.902	–	0.729	–	0.605
x1 = 0.000533	1.012	0.901	0.813	0.744	0.628	–
x1 = 0.0005591	–	0.904	–	0.731	–	0.606
x1 = 0.00063	1.014	0.903	0.815	0.746	0.63	–
x1 = 0.00072	1.016	0.905	0.817	0.748	0.632	–
